Data set [1] deals with T1, human vasopressin V1a receptor subtype (Homo sapiens, UniProt P37288).
T1 construct: host or cells: CHO cells (pZeoSV vector for the Thibonnier line)
In words: Vasopressin binding in Chinese Hamster Ovary cell membranes expressing human vasopressin V1a subtype receptors. The conditions noted are these: 100 nM, CHO cell membranes, [3H]Manning ligand, values without parentheses. Put shortly: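 Membranes from CHO cells expressing human V1a receptor were incubated with [3H]Manning ligand (added as 20 μL of 8 nM) in pH 7.4 Tris buffer with MgCl2, BSA and protease inhibitors, 60 min at room temperature. Bound radioactivity was counted after filtration; values are percent inhibition at a stated concentration or IC50.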

This note sets out measurements from patent publication US7109193B2, “Tricyclic diazepines tocolytic oxytocin receptor antagonists” (Wyeth, priority 2001, dated 2006).

T1 sequence (P37288 whole entry): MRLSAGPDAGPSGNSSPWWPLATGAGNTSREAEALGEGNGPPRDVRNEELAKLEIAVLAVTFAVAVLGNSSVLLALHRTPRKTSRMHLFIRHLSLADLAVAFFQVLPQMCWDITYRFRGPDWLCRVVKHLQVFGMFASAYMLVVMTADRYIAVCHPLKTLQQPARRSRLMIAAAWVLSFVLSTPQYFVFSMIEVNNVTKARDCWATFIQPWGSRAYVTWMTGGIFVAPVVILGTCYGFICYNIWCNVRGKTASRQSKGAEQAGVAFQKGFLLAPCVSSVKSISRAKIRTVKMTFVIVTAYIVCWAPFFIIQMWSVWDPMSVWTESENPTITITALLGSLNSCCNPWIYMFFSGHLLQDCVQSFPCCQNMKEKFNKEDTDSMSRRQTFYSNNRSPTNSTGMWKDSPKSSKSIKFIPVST

Turning to `COc1cc(-c2ccccc2C(F)(F)F)c(Cl)cc1C(=O)N1Cc2ccc(C(=O)O)n2Cc2ccccc21` [Example 15, 10-{[6-Chloro-3-methoxy-2′-trifluoromethyl-[1,1′-biphenyl]-4-yl]carbonyl}-10,11-dihydro-5H-pyrrolo[2,1-c][1,4]benzodiazepine-3-carboxylic acid], the melting point was 220 to 222 °C (dec.). For the same compound, in data set [1], the inhibition at 0.1 µM is -8%. On the same counts, the results for `COc1cc2c(cc1OC)N(C(=O)c1ccc(-c3ccccc3C(F)(F)F)c(C)c1)Cc1cccn1C2` [Example 12, 7,8-Dimethoxy-[10,11-dihydro-5H-pyrrolo[2,1-c][1,4]benzodiazepin-10-yl][2-methyl-2′-(trifluoromethyl)[1,1′-biphenyl]-4-yl]methanone] are 187 to 188 °C and -10%. On the same counts, the results for `COc1ccccc1-c1ccc(C(=O)N2Cc3ccc(C(=O)O)n3Cc3ccccc32)cc1C` [Example 9, 10-[(2′-Methoxy-2-methyl-[1,1′-biphenyl]-4-yl)carbonyl]-10,11-dihydro-5H-pyrrolo[2,1-c][1,4]benzodiazepine-3-carboxylic acid] are 174 to 184 °C and 10%. Consider `COc1cc(-c2ccccc2C)c(Cl)cc1C(=O)N1Cc2ccc(C(=O)N(C)C3CCN(C)C3)n2Cc2ccccc21` (stereo not shown) [Example 190, 10-[(6-Chloro-3-methoxy-2′-methyl[1,1′-biphenyl]-4-yl)carbonyl]-N-methyl-N-(1-methyl-3-pyrrolidinyl)-10,11-dihydro-5H-pyrrolo[2,1-c][1,4]benzodiazepine-3-carboxamide], for which the inhibition at 0.1 µM in data set [1] amounted to 40%. With `COc1ccccc1-c1ccc(C(=O)N2Cc3ccc(C(=O)N(C)C4CCN(C)CC4)n3Cc3ccccc32)cc1C` [Example 175, 10-[(2′-Methoxy-2-methyl[1,1′-biphenyl]-4-yl)carbonyl]-N-methyl-N-(1-methyl-4-piperidinyl)-10,11-dihydro-5H-pyrrolo[2,1-c][1,4]benzodiazepine-3-carboxamide], in data set [1], the inhibition at 0.1 µM was found to be 28%. For `COc1ccccc1-c1ccc(C(=O)N2Cc3ccc(C(=O)N(C)C4CCN(C)CC4)n3Cc3ccccc32)cc1OC` [Example 183, 10-[(2,2′-Dimethoxy[1,1′-biphenyl]-4-yl)carbonyl]-N-methyl-N-(1-methyl-4-piperidinyl)-10,11-dihydro-5H-pyrrolo[2,1-c][1,4]benzodiazepine-3-carboxamide], the inhibition at 0.1 µM in data set [1] amounted to 26%. As to `COc1cc(C(=O)N2Cc3ccc(C(=O)N4CCN(CCN(C)C)CC4)n3Cc3ccccc32)ccc1-c1cccc2ccccc12` [Example 203, {4-[2-(Dimethylamino)ethyl]-1-piperazinyl}{10-[3-methoxy-4-(1-naphthyl)benzoyl]-10,11-dihydro-5H-pyrrolo[2,1-c][1,4]benzodiazepin-3-yl}methanone], the inhibition at 0.1 µM in data set [1] amounted to 4%.

As a reminder, the inhibition is the drop in the measured response relative to a control, in per cent. The term melting point denotes the temperature of the solid-liquid transition.
